Reference: article PMC12866179, “Oxidized MIF is an Alzheimer’s disease drug target relaying external risk factors to tau pathology” (Cell Reports Medicine, 2025)
Like-named read-outs stand apart in the source and are kept apart here.

Columns and labels:
[1] = biological target: T1, MIF (Homo sapiens, UniProt P14174); experiment: Drug resin affinity chromatography (DRAC), MIF; format: binding; settings: SH-SY5Y-tau-P301S lysates
T1 construct: endogenous in cells; host or cells: SH-SY5Y-tau-P301S cell lysate
T1 sequence (P14174 2-115): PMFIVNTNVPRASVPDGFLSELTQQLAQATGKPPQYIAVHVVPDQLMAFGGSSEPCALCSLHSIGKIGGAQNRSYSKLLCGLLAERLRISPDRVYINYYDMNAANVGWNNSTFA
Protocol: (§1) For drug resin affinity chromatography (DRAC), supernatant of cell lysates or brain extracts were supplemented with 1 mM of ribonucleoside triphosphates (ATP, GTP, CTP, UTP; NEB), 10 mM creatine phosphate (Sigma) and 10 μL/mL of a 5 mg/mL stock solution of creatine kinase (Sigma). The samples were then loaded onto 20 μL of compound-coupled resin that were equilibrated with PBB-buffer (plus supplements). After one hour of incubation at 26°C, the beads were washed with PBB (100x bed volume). Bound proteins were then eluted either with 200 μM PAV-645 (pig brain) or 100 μM free compound (human brain samples; cell lysates) in the same buffer used as competitor solution or for stripping 1% SDS or 8M urea (cell lysates) for 1h. All elutions were kept frozen until further analysis.

[2] = in vitro; format: in vitro ADME
[3] = system: HSV-1; experiment: In-cell ELISA for antiviral (HSV-1) activity in Vero cells; format: cell-based, HSV-1 KOS strain; settings: for IC50: Human alphaherpesvirus 1, Vero; for potency relative to PAV-802 in inhibiting HSV-1 replication: in vitro assay
Protocol: Antiviral activity of the compounds was measured by in-cell ELISA that was adapted from Fabiani et al.[90] […] In parallel cells were infected with serial dilutions of HSV-1 to generate a standard curve. […] Following blocking with 5% BSA in PBS/0.05% Tween 20 (Sigma, PBS-T) for 60 min the cells were incubated with 50 μL of anti-HSV-1-gC antibody (abcam) diluted 1 to 10,000 in PBS-T over night at 4°C. The following day, cells were washed four times with PBS-T and then incubated with Hrp-conjugated goat anti-mouse antibody (Thermo Fisher Scientific) at a dilution of 1:10,000 in PBS-T for 60 min. Then, cells were washed four times with PBS-T before adding 50 μL of the substrate cocktail (OptEIA, BD). The reaction was stopped after 30 min by adding 50 μL of 2N H2SO4 and signals were spectrometrically analyzed using a Tecan Safire at 450 nm.

[4] = system: pox viruses; settings: cited from earlier work
[5] = biological target: T2, CUTA (Homo sapiens, UniProt O60888); experiment: Drug resin affinity chromatography (DRAC), CUTA; format: binding; settings: SH-SY5Y-tau-P301S lysates
T2 construct: endogenous in cells; host or cells: SH-SY5Y-tau-P301S cell lysate
T2 sequence (O60888 33-179): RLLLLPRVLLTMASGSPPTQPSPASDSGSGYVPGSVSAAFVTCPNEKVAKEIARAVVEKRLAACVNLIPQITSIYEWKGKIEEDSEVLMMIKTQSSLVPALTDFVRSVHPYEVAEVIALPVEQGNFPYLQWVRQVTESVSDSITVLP
Protocol: as §1

[6] = MTT assay, Vero cells; format: cell-based; settings: for CC50 at 24 h: African green monkey
Protocol: For viability analysis 4x10^4 Vero or 8x10^4 SH-SY5Y-tau-P301S cells were plated in a 96-well plate and incubated at 37°C overnight. Then the compounds diluted in DMSO were added to the cells. The final concentration of DMSO was 1%. The cells were then incubated for 24h (Vero) or 48h (SH-SY5Y). Afterward 20 μL of a Thiazolyl Blue Tetrazolium Bromide (MTT, Sigma) solution (5 mg/mL in PBS) was added to the cells and incubated for 4h allowing viable cells to reduce the yellow MTT into blue formazan metabolites. Following aspiration of the medium, the formazan was resuspended in 200 μL isopropanol/40 mM HCl and incubated for 30 min at RT. The diluted formazan was spectrometrically analyzed using a Tecan Safire Spectrometer at 560 nm and background at 670 nm was subtracted.

[7] = system: tau phosphorylation; experiment: Tau assay (immunoblot of phospho-tau) in SH-SY5Y-tau-P301S cells; format: cell-based, human; settings: for tau phosphorylation at Ser202 and Thr205 (AT8): absence of virus, ISO-1 up to 100 μM; for effect on tau phosphorylation (AT8) in MIF-knockdown cells: SH-SY5Y-tau-P301S-MIF-knockdown cells; for potency relative to PAV-802 in inhibiting tau phosphorylation: in vitro assay
Protocol: For the analysis of compound effects on tau phosphorylation 4x10^5 SH-SY5Y tau-P301S cells were seeded on 24-well plates. At the next day the cells were treated with compounds diluted in DMSO. Final concentration of DMSO was 0.2%. After an incubation at 37°C for 48h the cells were washed twice with PBS and then lysed in PBS/1% NP40 (Applichem) including the cOmplete protease inhibitor cocktail 2 (Roche) and phosphatase inhibitor cocktail (Sigma). The protein concentration of the samples was determined with the DC Protein Assay (Bio-Rad).
After the protein concentration of cell lysates and homogenates had been determined using the DC Protein Assay Kit (Bio-Rad), 20 μg of each sample were dissolved in NuPAGE LDS Sample buffer (including 2% β-mercaptoethanol), boiled at 100°C for 5 min and then separated on NuPAGE Novex 4–12% Bis-Tris midi gels (Invitrogen) using NuPAGE MES SDS Running buffer (Invitrogen). Proteins were then transferred to a 0.2 μm nitrocellulose membrane (Amersham) in 24 mM Tris/192 mM glycine/20% MeOH at 400 mA for 2h using a tank blot system (Bio-Rad). In order to detect any blotting artifacts, the proteins on the membranes were visualized with Ponceau S (Sigma). The membranes were destained with PBS and then blocked with PBS/5% nonfat milk (Oxoid) for 1h at RT. Incubations with primary antibodies (diluted 1:1,000) in PBS-T were carried out overnight at 4°C. Then the membranes were washed three times with PBS-T for 10 min and afterward incubated with fluorescent secondary antibodies (IR Dye 680 or 800: Li-COR Biosciences.) diluted 1:20,000 in PBS-T for 1h at RT. Following three washing steps with PBS-T for 10 min each, the membranes were scanned using an LI-COR Odyssey CLX. Signal intensities were calculated using the Image Studio Version 2.1 software (LI-COR Biosciences). Blots were reused for staining with additional primary antibodies following the same procedure.

Compound | elution of MIF from PAV-617 resins by free compound [1] | fraction unbound [2] | IC50 [3] | IC50 ([3]; read-out: IC50, HSV-1 replication, in-cell ELISA) | potency relative to PAV-802 in inhibiting HSV-1 replication [3] | antiviral effects on pox viruses [4] | elution of CUTA from PAV-617 resins by free compound [5] | CC50 at 24 h ([6]; CC50 (µM)) | CC50 at 24 h ([6]; CC50, MTT assay in Vero) | CC50 ([6]; CC50 (µM)) | tau phosphorylation at Thr181 (AT270) ([7]; SH-SY5Y-tau-P301S cells) | tau phosphorylation at Thr231 (AT180) ([7]; SH-SY5Y-tau-P301S cells) | HSV-1-induced increase of tau phosphorylation (AT8) ([7]; SH-SY5Y-tau-P301S cells infected with HSV-1) | tau phosphorylation at Ser202 and Thr205 (AT8) ([7]; SH-SY5Y-tau-P301S cells) | effect on tau phosphorylation (AT8) in MIF-knockdown cells [7] | potency relative to PAV-802 in inhibiting tau phosphorylation [7]
CCc1cc(N2CCCC2)cc2[s+]c3cc(N4CCCC4)cc(C)c3nc12.[I-] [PAV-174, 3,7-Di(pyrrolidine-1-yl) 1-ethyl-9-methyl-phenothiazin-5-ium iodide] | eluted | 0.001 | 20 nM | 21 nM | around 2 logs | antiviral effects | eluted | 1.2 µM | 1.12 µM | 1.16 µM | only at higher concentrations | dose-dependent reduction | absent | reduced tau phosphorylation | absent | around 2 logs
[I-].c1cc2nc3ccc(N4CCCC4)cc3[s+]c2cc1N1CCCC1 [PAV-617, 3,7-Di(pyrrolidine-1-yl)phenothiazine-5-ium iodide] | eluted | 0.088 | 220 nM | – | retained that enhanced activity | antiviral effects | eluted | – | – | 20.1 µM | – | – | – | reduced tau phosphorylati on ly in control | bu t no t in MIF-knockdown | retained that enhanced activity
